# Experiments:
# arrowleaf sida = experiment: Test C postemergence arrowleaf sida; format: in vivo, Sida rhombifolia; conditions: 0 to 100 scale, 0 no effect, 100 complete control
# In short: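 Postemergence spray; formulation = non-phytotoxic solvent + surfactant; soil 60:40 sandy loam:greenhouse potting mix; greenhouse, ~14–21 d; visual rating vs untreated, 0–100 (100 = complete control).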
# cotton = experiment: Test C postemergence cotton; format: in vivo, Gossypium hirsutum; conditions: 0 to 100 scale, 0 no effect, 100 complete control
# Experimental: (§1) Compounds evaluated in this test were formulated in a non-phytotoxic solvent mixture which included a surfactant and applied to plants that were grown for various periods of time before treatment (postemergence application). A mixture of sandy loam soil and greenhouse potting mix in a 60:40 ratio was used for the postemergence test.
# (§2) Plantings of these crops and weed species were adjusted to produce plants of appropriate size for the postemergence test. All plant species were grown using normal greenhouse practices. Crop and weed species include arrowleaf sida (Sida rhombifolia), barnyardgrass (Echinochloa crus-galli), cocklebur (Xanthium strumarium), common ragweed (Ambrosia elatior), corn (Zea mays), cotton (Gossypium hirsutum), eastern black nightshade (Solanum ptycanthum), fall panicum (Panicum dichotomiflorum), field bindweed (Convolvulus arvensis), giant foxtail (Setaria faberii), hairy beggarticks (Bidens pilosa), ivyleaf morningglory (Ipomoea hederacea), johnsongrass (Sorghum halepense), ladysthumb smartweed (Polygonum persicaria), lambsquarters (Chenopodium album), large crabgrass (Digitaria sanguinalis), purple nutsedge (Cyperus rotundus), redroot pigweed (Amaranthus retroflexus), soybean (Glycine max), surinam grass (Brachiaria decumbens), velvetleaf (Abutilon theophrasti) and wild poinsettia (Euphorbia heterophylla).
# (§3) Treated plants and untreated controls were maintained in a greenhouse for approximately 14, to 21 days, after which all treated plants were compared to untreated controls and visually evaluated. Plant response ratings, summarized in Table C, were based upon a 0 to 100 scale where 0 was no effect and 100 was complete control. A dash response (−) means no test result.
# surinam grass [1] = experiment: Test C postemergence surinam grass; format: in vivo, Brachiaria decumbens; conditions: 0 to 100 scale, 0 no effect, 100 complete control
# Experimental: as §1, §2, §3
# chickweed = experiment: Test E chickweed; format: in vivo, Stellaria media; conditions: Postemergence; for Plant response rating, Chickweed: 0 to 100 scale; for Chickweed plant response rating: Rate 250 g/ha, 0 to 100 scale where 0 is no effect and 100 is complete control
# In short: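 Greenhouse-grown plants are treated (postemergence: 1- to 4-leaf stage, sandy loam/potting mix 60:40), then evaluated visually versus untreated controls some 21 to 28 days later.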
# scentless chamomile = experiment: Test E scentless chamomile; format: in vivo, Matricaria inodora; conditions: Postemergence; for Plant response rating, Scentless chamo: 0 to 100 scale; for Scentless chamo plant response rating: Rate 250 g/ha, 0 to 100 scale where 0 is no effect and 100 is complete control
# Experimental: as §1, with “in the 1- to 4-leaf stage” for “grown for various periods of time before treatment”
# (§4) Plantings of these crops and weed species were adjusted to produce plants of appropriate size for the postemergence test. All plant species were grown using normal greenhouse practices. Crop and weed species include annual bluegrass (Poa annua), blackgrass (Alopecurus myosuroides), black nightshade (Solanum nigra), chickweed (Stellaria media), common poppy (Papaver rhoeas), deadnettle (Lamium amplexicaule), downy brome (Bromus tectorum), field violet (Viola arvensis), galium (Galium aparine), green foxtail (Setaria viridis), Italian ryegrass (Lolium multiflorum), jointed goatgrass (Aegilops cylindrica), kochia (Kochia scoparia), lambsquarters (Chenopodium album), littleseed canarygrass (Phalaris minor), rape (Brassica napus), redroot pigweed (Amaranthus retroflexus), Russian thistle (Salsola kali), scentless chamomile (Matricaria inodora), spring barley (Hordeum vulgare), sugar beet (Beta vulgaris), sunflower (Helianthus annuus), ivyleaf speedwell (Veronica hederaefolia), spring wheat (Triticum aestivum), winter wheat (Triticum aestivum), wild buckwheat (Polygonum convolvulus), wild mustard (Sinapis arvensis), wild oat (Avena fatua), windgrass (Apera spica-venti) and winter barley (Hordeum vulgare).
# (§5) Treated plants and untreated controls were maintained in a greenhouse for approximately 21 to 28 days, after which all treated plants were compared to untreated controls and visually evaluated. […] A dash response (-) means no test result.
# winter barley = experiment: Test E winter barley; format: in vivo, Hordeum vulgare; conditions: Postemergence; for Plant response rating, Barley (winter): 0 to 100 scale; for Barley (winter) plant response rating: Rate 250 g/ha, 0 to 100 scale where 0 is no effect and 100 is complete control
# Experimental: as §1, with “in the 1- to 4-leaf stage” for “grown for various periods of time before treatment”
# as §4, §5
# common ragweed = experiment: Test D common ragweed; format: in vivo, Ambrosia elatior; conditions: Postemergence, 0 to 100 scale
# common groundsel = experiment: Test D common groundsel; format: in vivo, Senecio vulgaris; conditions: Postemergence, 0 to 100 scale
# goosegrass = experiment: Test D goosegrass; format: in vivo, Eleusine indica; conditions: Postemergence, 0 to 100 scale
# Johnson grass = experiment: Test D Johnson grass; format: in vivo, Sorghum halepense; conditions: Postemergence, 0 to 100 scale
# surinam grass [2] = experiment: Test D surinam grass; format: in vivo, Brachiaria decumbens; conditions: Postemergence, 0 to 100 scale
# field violet = experiment: Test E field violet; format: in vivo, Viola arvensis; conditions: Preemergence; for Field violet plant response rating (0 to 100 scale): Rate 250 g/ha
# littleseed canarygrass = experiment: Test E littleseed canarygrass; format: in vivo, Phalaris minor; conditions: Preemergence; for LS canarygrass plant response rating (0 to 100 scale): Rate 250 g/ha
# wild buckwheat = experiment: Test E wild buckwheat; format: in vivo, Polygonum convolvulus; conditions: Preemergence; for Wild buckwheat plant response rating (0 to 100 scale): Rate 250 g/ha
# wild mustard = experiment: Test E wild mustard; format: in vivo, Sinapis arvensis; conditions: Preemergence; for Wild mustard plant response rating (0 to 100 scale): Rate 250 g/ha
# Green foxtail = experiment: Test D green foxtail; format: in vivo; conditions: Postemergence, 0 to 100 scale, 0 no injury, 100 complete control
# [3] = Rate 125 g/ha, 0 is no effect, 100 is complete control
# [4] = Rate 500 g/ha, 0 is no effect, 100 is complete control
# [5] = Rate 16 g/ha, 0 no injury, 100 complete control
# [6] = Rate 32 g/ha, 0 no injury, 100 complete control
# [7] = Rate 64 g/ha, 0 no injury, 100 complete control
# [8] = Rate 125 g/ha, 0 no injury, 100 complete control
# [9] = Rate 125 g/ha, 0 to 100 scale (0 no effect, 100 complete control)
# [10] = Rate 500 g/ha, 0 to 100 scale where 0 is no effect and 100 is complete control
smiles,measurement,setting,value
CC(C)N(C(=O)n1oc(=O)n(C2CC2)c1=O)c1ccc(F)cc1 [Compound 242],Plant response rating Arrowleaf sida,arrowleaf sida; Rate 140 g/ha,10
same,Plant response rating Arrowleaf sida,arrowleaf sida; Rate 280 g/ha,30
same,Plant response rating Arrowleaf sida,arrowleaf sida; Rate 560 g/ha,70
same,Plant response rating Arrowleaf sida,arrowleaf sida; Rate 1120 g/ha,90
same,Plant response rating Cotton,cotton; Rate 140 g/ha,0
same,Plant response rating Cotton,cotton; Rate 280 g/ha,20
same,Plant response rating Cotton,cotton; Rate 560 g/ha,45
same,Plant response rating Cotton,cotton; Rate 1120 g/ha,70
same,"Plant response rating, Surinam grass",surinam grass [1]; Rate 140 g/ha,0
same,"Plant response rating, Surinam grass",surinam grass [1]; Rate 280 g/ha,40
same,"Plant response rating, Surinam grass",surinam grass [1]; Rate 560 g/ha,85
same,"Plant response rating, Surinam grass",surinam grass [1]; Rate 1120 g/ha,90
same,"Plant response rating, Chickweed",chickweed; Rate 62 g/ha,0
same,"Plant response rating, Chickweed",chickweed; [3],30
same,Chickweed plant response rating,chickweed,0
same,"Plant response rating, Chickweed",chickweed; [4],50
same,"Plant response rating, Scentless chamo",scentless chamomile; Rate 62 g/ha,55
same,"Plant response rating, Scentless chamo",scentless chamomile; [3],40
same,Scentless chamo plant response rating,scentless chamomile,0
same,"Plant response rating, Scentless chamo",scentless chamomile; [4],20
same,"Plant response rating, Barley (winter)",winter barley; Rate 62 g/ha,20
same,"Plant response rating, Barley (winter)",winter barley; [3],0
same,Barley (winter) plant response rating,winter barley,10
same,"Plant response rating, Barley (winter)",winter barley; [4],20
same,"Plant response rating, C. ragweed",common ragweed; [5],50
same,"Plant response rating, C. ragweed",common ragweed; [6],30
same,"Plant response rating, C. ragweed",common ragweed; [7],30
same,"Plant response rating, C. ragweed",common ragweed; [8],90
same,"Plant response rating, C. ragweed",common ragweed; Rate 250 g/ha,100
same,"Plant response rating, Com. groundsel",common groundsel; [5],0
same,"Plant response rating, Com. groundsel",common groundsel; [6],100
same,"Plant response rating, Com. groundsel",common groundsel; [7],90
same,"Plant response rating, Com. groundsel",common groundsel; [8],90
same,"Plant response rating, Com. groundsel",common groundsel; Rate 250 g/ha,100
same,"Plant response rating, Goosegrass",goosegrass; [5],90
same,"Plant response rating, Goosegrass",goosegrass; [6],100
same,"Plant response rating, Goosegrass",goosegrass; [7],100
same,"Plant response rating, Goosegrass",goosegrass; [8],100
same,"Plant response rating, Goosegrass",goosegrass; Rate 250 g/ha,100
same,"Plant response rating, Johnsongrass",Johnson grass; [5],0
same,"Plant response rating, Johnsongrass",Johnson grass; [6],0
same,"Plant response rating, Johnsongrass",Johnson grass; [7],40
same,"Plant response rating, Johnsongrass",Johnson grass; [8],30
same,"Plant response rating, Johnsongrass",Johnson grass; Rate 250 g/ha,90
same,"Plant response rating, Surinam grass",surinam grass [2]; [5],0
same,"Plant response rating, Surinam grass",surinam grass [2]; [6],30
same,Surinam grass plant response rating,surinam grass [2]; [7],100
same,Surinam grass plant response rating,surinam grass [2]; [8],100
same,"Plant response rating, Surinam grass",surinam grass [2]; Rate 250 g/ha,100
same,"Plant response rating, Field violet",field violet; [9],50
same,Field violet plant response rating (0 to 100 scale),field violet,65
same,"Plant response rating, Field violet",field violet; [10],100
same,"Plant response rating, LS canarygrass",littleseed canarygrass; [9],100
same,LS canarygrass plant response rating (0 to 100 scale),littleseed canarygrass,100
same,"Plant response rating, LS canarygrass",littleseed canarygrass; [10],100
same,"Plant response rating, Wild buckwheat",wild buckwheat; [9],60
same,Wild buckwheat plant response rating (0 to 100 scale),wild buckwheat,70
same,"Plant response rating, Wild buckwheat",wild buckwheat; [10],100
same,"Plant response rating, Wild mustard",wild mustard; [9],65
same,Wild mustard plant response rating (0 to 100 scale),wild mustard,65
same,"Plant response rating, Wild mustard",wild mustard; [10],70
same,"Plant response rating, Green foxtail",Green foxtail; Rate 16 g/ha,30
same,"Plant response rating, Green foxtail",Green foxtail; Rate 32 g/ha,100
CC(C)N(C(=O)n1oc(=O)n(C)c1=O)c1ccc(F)cc1 [Compound 138],Plant response rating Arrowleaf sida,arrowleaf sida; Rate 140 g/ha,0
same,Plant response rating Arrowleaf sida,arrowleaf sida; Rate 1120 g/ha,70
same,Plant response rating Cotton,cotton; Rate 140 g/ha,5
same,Plant response rating Cotton,cotton; Rate 280 g/ha,30
same,Plant response rating Cotton,cotton; Rate 560 g/ha,40
same,Plant response rating Cotton,cotton; Rate 1120 g/ha,70
same,"Plant response rating, Surinam grass",surinam grass [1]; Rate 140 g/ha,10
same,"Plant response rating, Surinam grass",surinam grass [1]; Rate 280 g/ha,40
same,"Plant response rating, Surinam grass",surinam grass [1]; Rate 560 g/ha,85
same,"Plant response rating, Surinam grass",surinam grass [1]; Rate 1120 g/ha,90
same,"Plant response rating, Chickweed",chickweed; Rate 125 g/ha,0
same,Chickweed plant response rating,chickweed,0
same,"Plant response rating, Scentless chamo",scentless chamomile; Rate 125 g/ha,20
same,Scentless chamo plant response rating,scentless chamomile,0
same,"Plant response rating, Barley (winter)",winter barley; Rate 125 g/ha,0
same,Barley (winter) plant response rating,winter barley,0
same,"Plant response rating, Field violet",field violet; [9],50
same,Field violet plant response rating (0 to 100 scale),field violet,70
same,"Plant response rating, LS canarygrass",littleseed canarygrass; [9],70
same,LS canarygrass plant response rating (0 to 100 scale),littleseed canarygrass,85
same,"Plant response rating, Wild buckwheat",wild buckwheat; [9],50
same,Wild buckwheat plant response rating (0 to 100 scale),wild buckwheat,100
same,"Plant response rating, Wild mustard",wild mustard; [9],40
same,Wild mustard plant response rating (0 to 100 scale),wild mustard,55
CC(C)N(C(=O)n1oc(=O)n(C2CCCCCC2)c1=O)c1ccc(F)cc1F [Compound 342],"Plant response rating, C. ragweed",common ragweed; [6],0
same,"Plant response rating, C. ragweed",common ragweed; [7],0
same,"Plant response rating, C. ragweed",common ragweed; [8],0
same,"Plant response rating, C. ragweed",common ragweed; Rate 250 g/ha,100
same,"Plant response rating, Com. groundsel",common groundsel; [6],0
same,"Plant response rating, Com. groundsel",common groundsel; [8],0
same,"Plant response rating, Com. groundsel",common groundsel; Rate 250 g/ha,0
same,"Plant response rating, Goosegrass",goosegrass; [5],20
same,"Plant response rating, Goosegrass",goosegrass; [6],30
same,"Plant response rating, Goosegrass",goosegrass; [7],90
same,"Plant response rating, Goosegrass",goosegrass; [8],100
same,"Plant response rating, Goosegrass",goosegrass; Rate 250 g/ha,100
same,"Plant response rating, Johnsongrass",Johnson grass; [5],0
same,"Plant response rating, Johnsongrass",Johnson grass; [6],0
same,"Plant response rating, Johnsongrass",Johnson grass; [7],0
same,"Plant response rating, Johnsongrass",Johnson grass; [8],0
same,"Plant response rating, Johnsongrass",Johnson grass; Rate 250 g/ha,0
same,"Plant response rating, Surinam grass",surinam grass [2]; [5],0
same,"Plant response rating, Surinam grass",surinam grass [2]; [6],0
same,Surinam grass plant response rating,surinam grass [2]; [7],20
same,Surinam grass plant response rating,surinam grass [2]; [8],30
same,"Plant response rating, Surinam grass",surinam grass [2]; Rate 250 g/ha,40
same,"Plant response rating, Green foxtail",Green foxtail; Rate 16 g/ha,0
same,"Plant response rating, Green foxtail",Green foxtail; Rate 32 g/ha,0

# Reference: patent US6737383B1, “Herbicidal oxadiazolidines” (priority 1999, dated 2004)
